Like-named read-outs stand apart in the source and are kept apart here. One block for each substance: values may come before it. Ends that are not written are not given here.
Experiments:
[1] = target: T1, mouse transferrin receptor (mTfR) (Mus musculus, UniProt Q62351); experiment: Flow cytometry internalization assay, mTfR-expressing HEK293F cells; assay type: cell-based; settings: 50 nM Alexafluor 488 labeled protein, 4 h at 37° C., HEK293F cells transfected with mTfR; FIG. 2
T1 construct: expressed in transfected cells; host or cells: HEK293F
T1 sequence (Q62351 whole entry): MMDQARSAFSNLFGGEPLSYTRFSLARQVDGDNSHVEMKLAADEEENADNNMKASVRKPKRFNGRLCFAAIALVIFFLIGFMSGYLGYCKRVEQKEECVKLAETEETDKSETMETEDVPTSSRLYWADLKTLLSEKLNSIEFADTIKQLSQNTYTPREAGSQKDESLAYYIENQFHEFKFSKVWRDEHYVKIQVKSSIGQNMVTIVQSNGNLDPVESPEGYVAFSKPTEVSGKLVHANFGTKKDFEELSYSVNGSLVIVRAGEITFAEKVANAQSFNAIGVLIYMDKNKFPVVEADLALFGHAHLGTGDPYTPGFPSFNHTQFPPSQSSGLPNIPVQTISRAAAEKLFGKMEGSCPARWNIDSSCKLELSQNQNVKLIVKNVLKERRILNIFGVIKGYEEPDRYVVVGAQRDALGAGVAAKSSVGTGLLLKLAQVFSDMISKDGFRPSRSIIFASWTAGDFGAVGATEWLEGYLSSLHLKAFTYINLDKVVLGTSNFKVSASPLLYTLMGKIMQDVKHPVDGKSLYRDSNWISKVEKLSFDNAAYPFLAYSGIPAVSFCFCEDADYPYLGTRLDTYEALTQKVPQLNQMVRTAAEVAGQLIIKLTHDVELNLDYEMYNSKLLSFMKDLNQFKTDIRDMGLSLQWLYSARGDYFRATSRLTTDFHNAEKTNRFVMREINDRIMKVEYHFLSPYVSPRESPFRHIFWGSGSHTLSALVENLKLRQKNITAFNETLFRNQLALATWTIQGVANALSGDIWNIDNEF
Experimental: (§1) Free dye was then removed by passage through one to two desalting columns. HEK293F cells were first serially passaged two to three times, then transfected with expression constructs encoding human or mouse transferrin receptor ([…], respectively), and grown for 2-3 days at 37° C., 8% CO2, 130 rpm shaking in preparation for the assay. […] Cells were then pelleted, supernatant discarded, and resuspended in 40 μL fresh media containing 250 nM anti-488 quenching antibody (or media lacking 488 quenching antibody as a control), incubated on ice for 5 min, pelleted, supernatant discarded, washed with 200 μL cold FACS buffer, pelleted, supernatant discarded, and resuspended in 200 μL cold FACS buffer. Each sample was then subjected to FACS analysis using the FITC fluorescence detection channel, using Gate 1 (forward scatter linear vs. side scatter linear) to select live cells with normal morphology, using Gate 2 (side scatter area vs. side scatter linear) to select single cells, and measuring logarithmic FITC signal for 20,000-50,000 cells per sample. Subsequent data analysis was carried out using the FlowJo software package.

[2] = target: T2, human transferrin receptor (hTfR) (Homo sapiens, UniProt P02786); experiment: Flow cytometry internalization assay, hTfR-expressing HEK293F cells; assay type: cell-based; settings: 50 nM Alexafluor 488 labeled protein, 4 h at 37° C., HEK293F cells transfected with hTfR; FIG. 2
T2 construct: expressed in transfected cells; host or cells: HEK293F
T2 sequence (P02786 whole entry): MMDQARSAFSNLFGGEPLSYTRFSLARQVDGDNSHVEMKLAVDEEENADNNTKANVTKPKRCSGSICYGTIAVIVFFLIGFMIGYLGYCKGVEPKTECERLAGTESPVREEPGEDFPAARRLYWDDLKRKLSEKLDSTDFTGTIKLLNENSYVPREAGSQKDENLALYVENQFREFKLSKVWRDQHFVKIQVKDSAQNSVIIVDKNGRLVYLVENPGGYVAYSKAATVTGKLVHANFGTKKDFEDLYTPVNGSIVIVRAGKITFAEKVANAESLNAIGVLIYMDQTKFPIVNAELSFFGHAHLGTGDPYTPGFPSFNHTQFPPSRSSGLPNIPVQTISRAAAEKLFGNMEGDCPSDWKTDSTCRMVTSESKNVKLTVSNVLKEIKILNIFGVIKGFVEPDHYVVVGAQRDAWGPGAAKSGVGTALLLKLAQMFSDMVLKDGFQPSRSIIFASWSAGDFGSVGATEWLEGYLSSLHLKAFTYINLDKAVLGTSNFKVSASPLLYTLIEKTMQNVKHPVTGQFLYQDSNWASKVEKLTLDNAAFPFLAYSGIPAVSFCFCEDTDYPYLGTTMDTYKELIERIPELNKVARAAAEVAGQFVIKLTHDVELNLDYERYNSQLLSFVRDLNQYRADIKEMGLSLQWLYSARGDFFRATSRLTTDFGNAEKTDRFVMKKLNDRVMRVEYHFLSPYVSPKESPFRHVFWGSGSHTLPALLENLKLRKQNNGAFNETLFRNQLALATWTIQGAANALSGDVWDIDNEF
Experimental: as §1

[3] = monovalent trastuzumab knob-hole cyclotide fusions, 25 mg/kg, 24 hours, brain homogenate ELISA, versus trastuzumab alone; FIG. 8B
Experimental: Female C57BL/6 mice, age 10-12 weeks, were weighed and administered purified trastuzumab antibody or trastuzumab antibody-monovalent cyclotide fusions, made monovalent by knobs-holes fusion (targeting IGF1R, LRP1, or RAGE receptors) in triplicate at 25 mg/kg in phosphate buffered saline (PBS). After 24 hours, mice were perfused with Dulbecco's PBS containing anesthetic via aortic puncture and brains were removed. One brain hemisphere was transferred to 4% paraformaldehyde in PBS for 24 hours at 4° C., then transferred to PBS at 4° C., paraffin embedded, thin-sectioned using a microtome, and slices were mounted on slides for immunohistochemistry (IHC). The other brain hemisphere was flash frozen and stored at −80° C. prior to homogenization. […]
Antibodies present in brain were quantified by enzyme-linked immunosorbent assay (ELISA). […] Plates were washed 4 times with TBST and once with TBS, developed with 3,3′,5,5′-tetramethylbenzidine (TMB) for 2 minutes, quenched with 1 N sulfuric acid, and read at 450 nm in a SpectraMax plate reader. […] Amounts of antibodies (e.g., antibody fusion proteins or antibody alone) present in brain homogenates were determined by interpolation from each standard curve and were expressed as percents of injected dose per gram of brain (FIG. 8B).

[4] = rat, even after repeat dose; cited from earlier work
[5] = mouse, even after repeat dose; cited from earlier work

internalization (mean FITC fluorescence intensity) [1]: not | internalization (mean FITC fluorescence intensity) [2]: not
Substance: adalimumab

Substance: cyclotide binding Hu LRP-1; loop 1 peptide WYETKTKLYVGVVK (SEQ ID NO:43); cyclotide SEQ ID NO:89 (GGVCWYETKTKLYVGVVKCRRDSDCPGACICRGNGYCGSGSD; not fully specified (bridges); cysteine pairing not given here) [CYC34]
trastuzumab delivery to the brain (percents of injected dose per gram of brain) [3]: greatest enhancement

Substance: cyclotide binding Hu LRP-1; loop 1 peptide WLTLGIANKGIDVYDVK (SEQ ID NO:39); cyclotide SEQ ID NO:85 (GGVCWLTLGIANKGIDVYDVKCRRDSDCPGACICRGNGYCGSGSD; not fully specified (bridges); cysteine pairing not given here) [CYC30]
trastuzumab delivery to the brain (percents of injected dose per gram of brain) [3]: did not exhibit enhancement

Substance: Ziconitide
anti-drug antibodies (ADAs) [4]: no anti-drug antibodies (ADAs) were detectable | anti-drug antibodies (ADAs) [5]: no anti-drug antibodies (ADAs) were detectable
